Molecules are shown by their SMILES.

One data set deals with T1, h-NK1 receptors (Homo sapiens, UniProt P25103).
T1 construct: expressed in transfected cells; host or cells: CHO cells (permanent expression), crude cell membranes
Kind of data set: Evaluation of NK1 antagonist transport efficiency to the central nervous system using a h-NK1 receptor binding assay (brain extract after i.v. dosing of rats). As to conditions: 5 min; compound extracted from brain of male SD rats 5 min after i.v. injection at the dose of 1 mg/kg; CHO cell membranes expressing h-NK1; read-out: inhibition rate of 125I-BH-Substance P binding to h-NK1 receptors. How it is done:
A. Evaluation of NK1 Antagonist Transport Efficiency to the Cental Nervous System using a h-NK1 Receptor Binding Assay
(1) Administration of Test Compound and Extraction of the Compound from Brain
Male SD rats were given an i.v. injection of a solution containing a test compound (1 mg/kg). 5 Min later the animals were anesthetized by ether, bled and perfused through the aorta ascendens with 20 ml of saline. The brain was rapidly removed, weighed and homogenized in 4 vol. ice-cold distilled water by using Polytoron (KINEMATICA). To extract the test compound, 500 μl of the homogenate, 100 μl of methanol, 500 μl of 0.1 N NaOH and 4 ml of ethyl acetate were mixed by shaking for 10 min at room temperature. The organic phase (2.5 ml) was recovered by centrifugation at 3,000 rpm for 10 min, dried and dissolved in dimethyl sulfoxide.
(2) h-NK1 Receptor Binding Assay
(a) Crude CHO Cell Membrane Preparation
CHO cells permanently expressing h-NK1 receptors were harvested and homogenized with a Dounce homogenizer at 4° C. in a buffer (0.25 M sucrose, 25 mM Tris-HCl (pH 7.4), 10 mM MgCl2, 1 mM EDTA, 5 μg/ml p-APMSF). The homogenate was centrifuged (500×g, 10 min), and the pellet was resuspended in the same buffer, homogenized, and centrifuged. The two supernatants were combined and centrifuged (100,000×g, 1 hour). The crude cell membranes thus isolated were resuspended in a buffer (25 mM Tris-HCl (pH 7.4), 10 mM MgCl2, 1 mM. EDTA, 5 μg/ml p-APMSF) and stored at −80° C. until use.
(b) ^125I-BH-Substance P Binding to the Prepared Membrane
Cell membranes (6 μg/ml) were incubated with ^125I-BH-Substance P (0.1 nM) with or without the extracted compounds in 0.25 ml of a medium (50 mM Tris-HCl (pH 7.4), 5 mM MnCl2, 20 μg/ml chymostatin, 40 μg/ml bacitracin, 4 μg/ml leupeptin, 5 μg/ml p-APMSF, 200 μg/ml BSA) at 22° C. for 90 min. At the end of the incubation period, the contents were quickly filtered through a Blue Mat 11740 filter (pretreated with 0.1% polyethylenimine for 3 hours prior to use) by using SKATRON Cell Harvester. The filter was then washed with a washing buffer (50 mM Tris-HCl (pH 7.4), 5 mM MnCl2). The radioactivity was counted by using an auto gamma counter (Packard RIASTAR 5420A). All data presented are specific binding defined as that displaceable by 3 μM unlabeled Substance P.

The next data set concerns emesis in the ferret. Put plainly: Emesis in the ferret (copper sulfate-induced retching and vomiting). Format: in vivo. As to conditions: dose of 1.0 mg/kg i.v., 30 min before intra-gastric copper sulfate (40 mg/kg/ml), observed for the next 30 min. How it is done: Individually housed adult male ferrets (Marshall Farms, 1.4 to 2.2 kg) were given an i.v. injection of a solution contatining a test compound. 30 Min later the emetic responses (retching and vomiting) were induced by administration of intra-gastric copper sulfate (40 mg/kg/ml) and observed for the next 30 min. The timing and number of retches and vomits observed were recorded for each animal. An individual animal was tested with at least 10 days between experiments.

T1 sequence (P25103 whole entry): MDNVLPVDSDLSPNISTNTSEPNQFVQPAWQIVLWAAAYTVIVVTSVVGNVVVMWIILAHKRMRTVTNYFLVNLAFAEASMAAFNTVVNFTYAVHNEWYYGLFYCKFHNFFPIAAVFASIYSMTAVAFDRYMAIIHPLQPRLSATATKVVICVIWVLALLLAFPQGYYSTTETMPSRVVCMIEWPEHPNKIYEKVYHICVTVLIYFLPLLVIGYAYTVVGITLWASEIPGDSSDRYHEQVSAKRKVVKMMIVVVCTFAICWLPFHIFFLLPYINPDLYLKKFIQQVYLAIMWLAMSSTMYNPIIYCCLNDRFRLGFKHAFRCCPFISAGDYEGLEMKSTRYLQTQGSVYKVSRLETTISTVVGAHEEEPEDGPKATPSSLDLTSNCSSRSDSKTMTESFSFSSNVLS

Consider `COCC1CN(CCCN2CCN(C(=O)c3cc(C(F)(F)F)cc(C(F)(F)F)c3)[C@H](Cc3ccc(C)c(C)c3)C2)CCO1.Cl` (stereo partly drawn) [80-(7), (2R)-1-[3,5-Bis(trifluoromethyl)benzoyl]-2-(3,4-dimethylbenzyl)-4-[3-(2-methoxymethylmorpholino)propyl]piperazine hydrochloride], for which the melting point – broadly, the temperature, or range, at which the solid turns liquid – was in the range of 145 to 155 °C. Further, on h-NK1 receptors, the inhibition – broadly, the percentage by which the read-out fell short of the control – at 1 mg/kg is > 80%. For `Cc1ccc(C[C@@H]2CN(CCN3CCOC[C@@H]3CF)CCN2C(=O)c2cc(C(F)(F)F)cc(C(F)(F)F)c2)cc1C.Cl.Cl` [81-(1), (2R)-1-[3,5-Bis(trifluoromethyl)benzoyl]-2-(3,4-dimethylbenzyl)-4-[2-((3R)-3-fluoromethylmorpholino)ethyl]piperazine dihydrochloride] the same measures were 145 to 155 °C and > 80%.

Consider `COCC1(C)COCCN1CCN1CCN(C(=O)c2cc(C(F)(F)F)cc(C(F)(F)F)c2)[C@H](Cc2ccc(C)c(C)c2)C1.Cl.Cl` (stereo partly drawn) [81-(2), (2R)-1-[3,5-Bis(trifluoromethyl)benzoyl]-2-(3,4-dimethylbenzyl)-4-[2-(3-methoxymethyl-3-methylmorpholino)ethyl]piperazine dihydrochloride], for which the melting point was 60 to 70 °C. Also, on h-NK1 receptors, the inhibition at 1 mg/kg was > 80%. Compound `CCOC[C@H]1COCCN1CCN1CCN(C(=O)c2cc(C(F)(F)F)cc(C(F)(F)F)c2)[C@H](Cc2ccc(C)c(C)c2)C1.Cl.Cl` [81-(3), (2R)-1-[3,5-Bis(trifluoromethyl)benzoyl]-2-(3,4-dimethylbenzyl)-4-[2-((3S)-3-ethoxymethylmorpholino)ethyl]piperazine dihydrochloride] had a melting point of 60 to 65 °C. Besides, the inhibition at 1 mg/kg at h-NK1 receptors is > 80%. For `COC[C@@H]1COCCN1CCN1CCN(C(=O)c2cc(C(F)(F)F)cc(C(F)(F)F)c2)[C@H](Cc2ccc(C)c(C)c2)C1.Cl.Cl` [81-(4), (2R)-1-[3,5-Bis(trifluoromethyl)benzoyl]-2-(3,4-dimethylbenzyl)-4-[2-((3R)-3-methoxymethylmorpholino)ethyl]piperazine dihydrochloride] the same measures were 90 to 100 °C and > 80%. For `COC[C@H]1CN(CCN2CCN(C(=O)c3cc(C(F)(F)F)cc(C(F)(F)F)c3)[C@H](Cc3ccc(C)c(C)c3)C2)CCO1.Cl.Cl` [81-(5), (2R)-1-[3,5-Bis(trifluoromethyl)benzoyl]-2-(3,4-dimethylbenzyl)-4-[2-((2R)-2-methoxymethylmorpholino)ethyl]piperazine dihydrochloride] the same measures were 160 to 170 °C and > 80%.

On to `CC1(C)COCCN1CC#CCN1CCN(C(=O)c2cc(C(F)(F)F)cc(C(F)(F)F)c2)C(Cc2cc3ccccc3[nH]2)C1.Cl.Cl` (stereo not drawn) [89-(1), 1-[3,5-Bis(trifluoromethyl)benzoyl]-2-[(1H-indol-2-yl)methyl]-4-[4-(3,3-dimethylmorpholino)-2-butynyl]piperazine dihydrochloride], for which the melting point is 185 °C. Further, the inhibition at 1 mg/kg on h-NK1 receptors was > 80%. For `CN(C)c1cc(C(=O)N2CCN(CC#CCN3CCOCC3(C)C)C[C@H]2Cc2c[nH]c3ccccc23)cc(C(F)(F)F)c1.Cl.Cl` [90-(2), (2R)-1-[3-(Dimethylamino)-5-(trifluoromethyl)benzoyl]-4-[4-(3,3-dimethylmorpholino)-2-butynyl]-2-[(1H-indol-3-yl)methyl]piperazine dihydrochloride] the same measures were 210 to 225 °C and > 80%. `CC1(C)COCCN1CC#CCN1CCN(C(=O)c2cc([N+](=O)[O-])cc(C(F)(F)F)c2)[C@H](Cc2c[nH]c3ccccc23)C1.Cl.Cl` [90-(3), (2R)-4-[4-(3,3-Dimethylmorpholino)-2-butynyl]-2-[(1H-indol-3-yl)methyl]-1-[3-nitro-5-(trifluoromethyl)benzoyl]piperazine dihydrochloride]: the melting point was 198 to 220 °C. Moreover, on h-NK1 receptors, the inhibition at 1 mg/kg is > 80%. In turn, `CNc1cc(C(=O)N2CCN(CC#CCN3CCOCC3(C)C)C[C@H]2Cc2ccc(C)c(C)c2)cc(C(F)(F)F)c1.Cl.Cl` [90-(4), (2R)-2-(3,4-Dimethylbenzyl)-4-[4-(3,3-dimethylmorpholino)-2-butynyl]-1-[3-(methylamino)-5-(trifluoromethyl)benzoyl]piperazine dihydrochloride] had a melting point of 195 to 205 °C. Further, at h-NK1 receptors, the inhibition at 1 mg/kg is > 80%. Taken in the same sequence, the figures for `Cc1ccc(C[C@@H]2CN(CC#CCN3CCOCC3(C)C)CCN2C(=O)c2cc([N+](=O)[O-])cc(C(F)(F)F)c2)cc1C.Cl.Cl` [90-(6), (2R)-2-(3,4-Dimethylbenzyl)-4-[4-(3,3-dimethylmorpholino)-2-butynyl]-1-[3-nitro-5-(trifluoromethyl)benzoyl]piperazine dihydrochloride] were 157 to 200 °C and > 80%.

`Cl.Cl.O=C(c1cc(C(F)(F)F)cc(C(F)(F)F)c1)N1CCN(C/C=C\c2cccnc2)C[C@H]1Cc1c[nH]c2ccccc12` [Example 5-(2), (2R)-1-[3,5-Bis(trifluoromethyl)benzoyl]-2-[(1H-indol-3-yl)methyl]-4-[(Z)-3-(3-pyridyl)-2-propenyl]piperazine dihydrochloride] registered a melting point of 165 to 177 °C. Further, the inhibition at 1 mg/kg on h-NK1 receptors was > 80%. For `Cc1ccc(C[C@@H]2CN(CC#CCN3CCOCC3)CCN2C(=O)c2cc(Cl)cc(Cl)c2)cc1C.Cl.Cl` [Example 15, (2R)-1-(3,5-dichlorobenzoyl)-2-(3,4-dimethylbenzyl)-4-(4-morpholino-2-butynyl)piperazine dihydrochloride] the same measures were 175 °C (dec.) and > 80%. Taken in the same sequence, the figures for `Cc1ccc(C[C@@H]2CN(CCCNN3CCOCC3)CCN2C(=O)c2cc(Cl)cc(Cl)c2)cc1C.Cl.Cl` [Example 17, (2R)-1-(3,5-dichlorobenzoyl)-2-(3,4-dimethylbenzyl)-4-(N-morpholino-3-aminopropyl)piperazine dihydrochloride] were 71 °C (dec.) and > 80%.

Consider `Cc1ccc(C[C@@H]2CN(CCCc3cn(C)cn3)CCN2C(=O)c2cc(C(F)(F)F)cc(C(F)(F)F)c2)cc1C.Cl.Cl` [Example 18, (2R)-1-[3,5-bis(trifluoromethyl)benzoyl]-2-(3,4-dimethylbenzyl)-4-[3-(1-methyl-1H-imidazol-4-yl)propyl]piperazine dihydrochloride], for which the melting point is 91 °C (dec.). Further, at h-NK1 receptors, the inhibition at 1 mg/kg was > 80%. Consider `Cc1ccc(C[C@@H]2CN(CCCN(C=O)N3CCOCC3)CCN2C(=O)c2cc(C(F)(F)F)cc(C(F)(F)F)c2)cc1C.Cl` [Example 26], for which the “inhibition rate of emesis in the ferret” value in the data set on emesis in the ferret is 100%. Same read-out and setting: next, `CN(CCN1CCN(C(=O)c2cc(C(F)(F)F)cc(C(F)(F)F)c2)[C@H](Cc2ccc3ccccc3c2)C1)Cc1cccnc1.Cl.Cl` [Example 40]: 100%. `Cc1ccc(C[C@@H]2CN(C/C=C/[C@@H]3COCCN3)CCN2C(=O)c2cc(C(F)(F)F)cc(C(F)(F)F)c2)cc1C.Cl.Cl` [Example 45, (2R)-1-[3,5-bis(trifluoromethyl)benzoyl]-2-(3,4-dimethylbenzyl)-4-[(2E)-3-[(3R)-3-morpholinyl]-2-propenyl]piperazine dihydrochloride]: the melting point is 225 to 232 °C. For the same compound, the inhibition at 1 mg/kg on h-NK1 receptors is > 80%. For `Cc1ccc(C[C@@H]2CN(CC#C[C@@H]3COCCN3)CCN2C(=O)c2cc(C(F)(F)F)cc(C(F)(F)F)c2)cc1C.Cl.Cl` [Example 68, (2R)-1-[3,5-bis(trifluoromethyl)benzoyl]-2-(3,4-dimethylbenzyl)-4-[3-[(3R)-morpholin-3-yl]-2-propynyl]piperazine dihydrochloride] the same measures were 190 to 191 °C and > 80%.
